Reference: ChEMBL document CHEMBL3885861, “Open TG-GATES”

Organism: Rattus norvegicus
Test: Open TG-GATES - Regimen: Daily Repeat
Format: toxicity, organism-based, Sprague-Dawley
Set-up: regimen Daily Repeat, gender Male, age 6 weeks
Settings: in vivo, po, route gavage; for Bas / Eos / Fbg / Hb / Ht / MCHC / MCV / Mono / Neu / Plat / RBC / Ret / WBC: tissue Blood; for KIDNEY_L / KIDNEY_R / KIDNEY_TOTAL: tissue Kidney; for LIVER: tissue Liver; for ALP / AST / BUN / CRE / DBIL / GLC / K / LDH / Na / PL / RALB / TBIL / TC / TG / TP / gamma-GTP / IP: tissue Plasma
[1] = 0 mg/kg, 72 h, dose level Control, time 3 day
[2] = 0 mg/kg, […], dose level Control, time 7 day
[3] = 0 mg/kg, […], dose level Control, time 14 day
[4] = 0 mg/kg, […], dose level Control, time 28 day
[5] = 20 mg/kg, 72 h, dose level Low, time 3 day
[6] = 20 mg/kg, […], dose level Low, time 7 day
[7] = 20 mg/kg, […], dose level Low, time 14 day
[8] = 20 mg/kg, […], dose level Low, time 28 day

CO[C@H]1/C=C/O[C@@]2(C)Oc3c(C)c(O)c4c(O)c(c(/C=N/N5CCN(C)CC5)c(O)c4c3C2=O)NC(=O)/C(C)=C\C=C\[C@H](C)[C@H](O)[C@@H](C)[C@@H](O)[C@@H](C)[C@H](OC(C)=O)[C@@H]1C [RIFAMPIN]
TERMINAL_BW [1]: 242.1 g
Bas [1]: 0%
Eos [1]: 1%
Fbg [1]: 239 mg/dL
Hb [1]: 13.9 g/dL
Ht [1]: 42%
MCHC [1]: 33.1%
MCV [1]: 63.9 fL
Mono [1]: 7.2%
Neu [1]: 13.8%
Plat [1]: 126 x10_4/uL
RBC [1]: 657.6 x10_4/ul
Ret [1]: 6.4%
WBC [1]: 129.1 x10_2/uL
KIDNEY_L [1]: 1 g
KIDNEY_R [1]: 1 g
KIDNEY_TOTAL [1]: 2 g
LIVER [1]: 12.4 g
ALP [1]: 966.4 IU/L
AST [1]: 62.4 IU/L
BUN [1]: 19 mg/dL
CRE [1]: 0.6 mg/dL
DBIL [1]: 0.004 mg/dL
GLC [1]: 199.2 mg/dL
K [1]: 5 meq/L
LDH [1]: 110.6 IU/L
Na [1]: 139.8 meq/L
PL [1]: 157 mg/dL
RALB [1]: 3.7 g/dL
TBIL [1]: 0.3 mg/dL
TC [1]: 83.8 mg/dL
TG [1]: 112.8 mg/dL
TP [1]: 6.1 g/dL
gamma-GTP [1]: 2 IU/L
TERMINAL_BW [2]: 275.2 g
TERMINAL_BW [3]: 316.4 g
TERMINAL_BW [4]: 390.1 g
Bas [2]: 0%
Eos [2]: 0%
Fbg [2]: 231.8 mg/dL
Hb [2]: 14.1 g/dL
Ht [2]: 42.8%
MCHC [2]: 33.1%
MCV [2]: 63.2 fL
Mono [2]: 6.2%
Neu [2]: 13.6%
Plat [2]: 107.2 x10_4/uL
RBC [2]: 677.2 x10_4/ul
Ret [2]: 5.8%
WBC [2]: 122.2 x10_2/uL
Bas [3]: 0%
Eos [3]: 0.8%
Fbg [3]: 235.6 mg/dL
Hb [3]: 15 g/dL
Ht [3]: 45%
MCV [3]: 59.6 fL
Mono [3]: 6%
Neu [3]: 11.8%
Plat [3]: 112.5 x10_4/uL
RBC [3]: 754.8 x10_4/ul
Ret [3]: 3.5%
WBC [3]: 153.6 x10_2/uL
Bas [4]: 0%
Eos [4]: 0.8%
Hb [4]: 15.7 g/dL
Ht [4]: 47%
MCHC [4]: 33.4%
MCV [4]: 58.9 fL
Mono [4]: 3%
Neu [4]: 12.4%
RBC [4]: 799.6 x10_4/ul
Ret [4]: 2.2%
KIDNEY_L [2]: 1.1 g
KIDNEY_R [2]: 1.1 g
KIDNEY_TOTAL [2]: 2.3 g
KIDNEY_L [3]: 1.2 g
KIDNEY_R [3]: 1.2 g
KIDNEY_TOTAL [3]: 2.4 g
KIDNEY_L [4]: 1.4 g
KIDNEY_R [4]: 1.4 g
KIDNEY_TOTAL [4]: 2.7 g
LIVER [2]: 13.1 g
LIVER [3]: 13.9 g
LIVER [4]: 16 g
ALP [2]: 827 IU/L
AST [2]: 68 IU/L
BUN [2]: 17.8 mg/dL
CRE [2]: 0.6 mg/dL
DBIL [2]: 0.004 mg/dL
GLC [2]: 198.6 mg/dL
IP [2]: 8.3 mg/dL
K [2]: 4.9 meq/L
LDH [2]: 108.4 IU/L
Na [2]: 140.6 meq/L
PL [2]: 150 mg/dL
RALB [2]: 3.9 g/dL
TBIL [2]: 0.3 mg/dL
TC [2]: 74.6 mg/dL
TG [2]: 132.6 mg/dL
TP [2]: 6.1 g/dL
gamma-GTP [2]: 1.8 IU/L
ALP [3]: 668.4 IU/L
AST [3]: 55.2 IU/L
BUN [3]: 18.2 mg/dL
CRE [3]: 0.6 mg/dL
DBIL [3]: 0.066 mg/dL
GLC [3]: 202.8 mg/dL
IP [3]: 7.9 mg/dL
K [3]: 5 meq/L
LDH [3]: 78.4 IU/L
Na [3]: 139.6 meq/L
PL [3]: 154.2 mg/dL
RALB [3]: 3.9 g/dL
TBIL [3]: 0.3 mg/dL
TC [3]: 68.6 mg/dL
TG [3]: 205.8 mg/dL
TP [3]: 6.3 g/dL
gamma-GTP [3]: 1.4 IU/L
ALP [4]: 557.2 IU/L
AST [4]: 56.4 IU/L
BUN [4]: 20.2 mg/dL
CRE [4]: 0.6 mg/dL
DBIL [4]: 0.014 mg/dL
GLC [4]: 179.8 mg/dL
IP [4]: 7.2 mg/dL
K [4]: 4.9 meq/L
LDH [4]: 77.2 IU/L
Na [4]: 140.6 meq/L
PL [4]: 157.4 mg/dL
RALB [4]: 4 g/dL
TBIL [4]: 0.3 mg/dL
TC [4]: 79.6 mg/dL
TG [4]: 165 mg/dL
TP [4]: 6.3 g/dL
gamma-GTP [4]: 0.8 IU/L
TERMINAL_BW [5]: 234.9 g
Bas [5]: 0%
Eos [5]: 0.8%
Fbg [5]: 239.4 mg/dL
Hb [5]: 14 g/dL
Ht [5]: 42.3%
MCHC [5]: 33%
MCV [5]: 62.8 fL
Mono [5]: 8%
Neu [5]: 7.2%
Plat [5]: 125.9 x10_4/uL
RBC [5]: 673.8 x10_4/ul
Ret [5]: 5.5%
WBC [5]: 119.2 x10_2/uL
KIDNEY_L [5]: 1 g
KIDNEY_R [5]: 1 g
KIDNEY_TOTAL [5]: 2 g
LIVER [5]: 10.7 g
ALP [5]: 787.6 IU/L
AST [5]: 66.8 IU/L
BUN [5]: 16 mg/dL
CRE [5]: 0.5 mg/dL
DBIL [5]: 0.002 mg/dL
GLC [5]: 194.8 mg/dL
IP [5]: 8.8 mg/dL
K [5]: 4.6 meq/L
LDH [5]: 113.2 IU/L
Na [5]: 139.4 meq/L
RALB [5]: 3.6 g/dL
TBIL [5]: 0.3 mg/dL
TC [5]: 73.4 mg/dL
TG [5]: 66 mg/dL
TP [5]: 5.8 g/dL
gamma-GTP [5]: 1.8 IU/L
TERMINAL_BW [6]: 264.5 g
TERMINAL_BW [7]: 308 g
TERMINAL_BW [8]: 375.5 g
Bas [6]: 0%
Eos [6]: 0.8%
Fbg [6]: 232.6 mg/dL
Hb [6]: 14 g/dL
Ht [6]: 41.7%
MCHC [6]: 33.4%
MCV [6]: 63.4 fL
Mono [6]: 4.8%
Neu [6]: 9%
Plat [6]: 115.2 x10_4/uL
RBC [6]: 658 x10_4/ul
Ret [6]: 5.9%
WBC [6]: 129.4 x10_2/uL
Bas [7]: 0%
Eos [7]: 0.8%
Fbg [7]: 227.2 mg/dL
Hb [7]: 14.7 g/dL
Ht [7]: 44%
MCHC [7]: 33.4%
MCV [7]: 60.7 fL
Mono [7]: 2.8%
Neu [7]: 6%
Plat [7]: 121.9 x10_4/uL
RBC [7]: 726.2 x10_4/ul
Ret [7]: 3.5%
WBC [7]: 131.2 x10_2/uL
Bas [8]: 0%
Eos [8]: 1%
Fbg [8]: 225 mg/dL
Hb [8]: 15.6 g/dL
Ht [8]: 46.4%
MCHC [8]: 33.5%
MCV [8]: 56.7 fL
Mono [8]: 4.4%
Neu [8]: 7.6%
Plat [8]: 107.2 x10_4/uL
RBC [8]: 819 x10_4/ul
Ret [8]: 2%
WBC [8]: 119 x10_2/uL
KIDNEY_L [6]: 1.1 g
KIDNEY_R [6]: 1.1 g
KIDNEY_TOTAL [6]: 2.2 g
KIDNEY_L [7]: 1.2 g
KIDNEY_R [7]: 1.3 g
KIDNEY_TOTAL [7]: 2.5 g
KIDNEY_L [8]: 1.3 g
KIDNEY_R [8]: 1.3 g
KIDNEY_TOTAL [8]: 2.6 g
LIVER [6]: 12.2 g
LIVER [7]: 13.1 g
LIVER [8]: 14.5 g
ALP [6]: 835.8 IU/L
AST [6]: 65.4 IU/L
BUN [6]: 16.8 mg/dL
CRE [6]: 0.5 mg/dL
DBIL [6]: 0.016 mg/dL
GLC [6]: 193.4 mg/dL
IP [6]: 7.7 mg/dL
K [6]: 5.1 meq/L
LDH [6]: 96.6 IU/L
Na [6]: 138.8 meq/L
PL [6]: 156.2 mg/dL
RALB [6]: 3.8 g/dL
TBIL [6]: 0.3 mg/dL
TC [6]: 80.6 mg/dL
TG [6]: 120.4 mg/dL
TP [6]: 5.8 g/dL
gamma-GTP [6]: 1.8 IU/L
ALP [7]: 712.2 IU/L
AST [7]: 56.6 IU/L
BUN [7]: 18.6 mg/dL
CRE [7]: 0.5 mg/dL
DBIL [7]: 0.04 mg/dL
GLC [7]: 190.2 mg/dL
IP [7]: 7.7 mg/dL
K [7]: 4.9 meq/L
LDH [7]: 75.8 IU/L
Na [7]: 140 meq/L
PL [7]: 159.8 mg/dL
RALB [7]: 3.9 g/dL
TBIL [7]: 0.3 mg/dL
TC [7]: 77.4 mg/dL
TG [7]: 168.2 mg/dL
TP [7]: 6.1 g/dL
gamma-GTP [7]: 0.8 IU/L
ALP [8]: 548.6 IU/L
AST [8]: 59.4 IU/L
BUN [8]: 18.6 mg/dL
CRE [8]: 0.6 mg/dL
DBIL [8]: 0.016 mg/dL
GLC [8]: 187.8 mg/dL
IP [8]: 7.1 mg/dL
K [8]: 4.3 meq/L
LDH [8]: 84.8 IU/L
Na [8]: 141.2 meq/L
PL [8]: 146.8 mg/dL
RALB [8]: 4.1 g/dL
TBIL [8]: 0.3 mg/dL
TC [8]: 76.8 mg/dL
TG [8]: 121.4 mg/dL
TP [8]: 6.3 g/dL
gamma-GTP [8]: 1.6 IU/L
